The values that follow come from patent US9981940B2, “Aryl sulfide derivatives and aryl sulfoxide derivatives as acaricides and insecticides” (BAYER CROPSCIENCE AKTIENGESELLSCHAFT, priority 2013, dated 2018).

SMILES strings stand for the structures.

Series [1] can be described thus: log P by HPLC (OECD Guideline 117), method [a] acidic range. Conditions: for logP[a]: HPLC, method [a] acidic range; for chromatographic logP: reversed-phase C18 HPLC column, acidic range. Format: physicochemical. How it is done: (§1) The log P values were determined analogously to OECD Guideline 117 (EC Directive 92/69/EEC) by HPLC (high-performance liquid chromatography) using reversed-phase columns (C 18), by the following methods:
[a] The LC-MS determination in the acidic range is effected at pH 2.7 with 0.1% aqueous formic acid and acetonitrile (contains 0.1% formic acid) as eluents; linear gradient from 10% acetonitrile to 95% acetonitrile.

The subject of a further series is Tetranychus urticae. As to the kind of experiment: Tetranychus urticae spray test, OP-resistant (TETRUR). The format is in vivo. Conditions: application rate of 500 g/ha, after 6 days; for pest or weed control at 500 g/ha: Tetranychus urticae, 144 h, read-out: efficacy. In outline:
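Mortality as % efficacy (0% = no mites killed) read 6 days after spraying. Formulation: active ingredient in acetone/dimethylformamide plus emulsifier, diluted with emulsifier-containing water, applied to Phaseolus vulgaris leaf discs carrying every life stage of OP-resistant spider mites.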

The next series deals with Boophilus microplus. As to the kind of experiment: Boophilus microplus injection test (BOOPMI Inj). The format is in vivo. Conditions: application rate of 20 μg/animal, assessed after 7 days by laying of fertile eggs. How it is done: Use Examples Boophilus microplus Injection Test (BOOPMI Inj) • Solvent: dimethyl sulphoxide
To prepare an appropriate active ingredient formulation, 10 mg of active ingredient are mixed with 0.5 ml of solvent and the concentrate is diluted with solvent to the desired concentration.
1 μl of the active ingredient solution is injected into the abdomen of 5 engorged adult female cattle ticks (Boophilus microplus). The animals are transferred into dishes and kept in a climate-controlled room.
The efficacy is assessed after 7 days by laying of fertile eggs. Eggs which are not visibly fertile are stored in a climate-controlled cabinet until the larvae hatch after about 42 days.
An efficacy of 100% means that none of the ticks has laid any fertile eggs; 0% means that all the eggs are fertile.

Series [2] is described as follows: log P by HPLC (OECD Guideline 117), method [b] neutral range. Format: physicochemical. Conditions: HPLC; for logP[b]: method [b] neutral range; for chromatographic logP: reversed-phase C18 HPLC column, neutral range, pH 7.8. How it is done: as §1
[b] The LC-MS determination in the neutral range is effected at pH 7.8 with 0.001 molar aqueous ammonium hydrogencarbonate solution and acetonitrile as eluents; linear gradient from 10% acetonitrile to 95% acetonitrile.

Where [3] appears, read: pH 2.7, HPLC method [a], read-out: logP[a].
Setting [4] is: pH 2.7, HPLC, pH 2.7, read-out: log P[a].

On to `COc1nn(-c2cc(SCC(F)(F)F)c(C)cc2F)c(=O)n1CC(F)(F)F` [Example 393], for which, in series [1], the “logP[a]” value stood at 3.50. Besides, the efficacy with Tetranychus urticae and in the series with Boophilus microplus was 100% in each case. Further, the “logP[b]” value in series [2] stood at 3.47.

For the molecule `Cc1cc(F)c(-n2nc(Br)n(C(C)C)c2=O)cc1SCC(F)(F)F` [Example 439, 5-Bromo-2-{2-fluoro-4-methyl-5-[(2,2,2-trifluoroethyl)sulphanyl]phenyl}-4-isopropyl-2,4-dihydro-3H-1,2,4-triazol-3-one], the chromatographic logP in series [1] (setting [3]) came to 3.83; in series [1] (setting [4]), 3.83; in series [2] it was 3.8. For the same molecule, the pest or weed control at 500 g/ha in the series with Tetranychus urticae stood at 100%. In the series on Boophilus microplus, this molecule gave an efficacy of 100%.

As for `Cc1cc(F)c(-n2nnn(C)c2=O)cc1[S+]([O-])CC(F)(F)F` (stereo not drawn) [Example 301, 1-{2-Fluoro-4-methyl-5-[(2,2,2-trifluoroethyl)sulphinyl]phenyl}-4-methyl-1,4-dihydro-5H-tetrazol-5-one], the chromatographic logP in series [1] (setting [3]) was 1.87; in series [1] (setting [4]), 1.87; in series [2], 1.82. The pest or weed control at 500 g/ha in the series with Tetranychus urticae came to 100%. Moreover, in the series with Boophilus microplus, the efficacy came out at 100%.

As to `Cc1cc(F)c(-n2nc(C(F)(F)F)n(C3CC3)c2=O)cc1[S+]([O-])CC(F)(F)F` (stereo not drawn) [Example 60], the “logP[a]” value in series [1] is 2.93. Further, the efficacy in the series with Tetranychus urticae is recorded as 90%; in the series with Boophilus microplus, 100%. In series [2], the “logP[b]” value was found to be 2.82.

Consider `Cc1cc(F)c(-n2nc([S+]([O-])C(C)C)n(C)c2=O)cc1[S+]([O-])CC(F)(F)F` (stereo not drawn) [Example 245], for which, in series [1], the “logP[a]” value is 1.94. Moreover, the efficacy with Tetranychus urticae and in the series on Boophilus microplus was 100% each time. Besides, the “logP[b]” value in series [2] came out at 1.90.

For the molecule `Cc1cc(F)c(-n2nc(Br)n(C3CC3)c2=O)cc1[S+]([O-])CC(F)(F)F` (racemic) [Example 295], the “logP[a]” value in series [1] worked out at 2.39. Further, the efficacy in the series with Tetranychus urticae and in the series with Boophilus microplus was 100% in each case. For the same molecule, the “logP[b]” value in series [2] was determined as 2.34.

In the case of `CCn1c([S+]([O-])CC)nn(-c2cc(SCC(F)(F)F)c(C)cc2F)c1=O` (stereo not drawn) [Example 253], the “logP[a]” value in series [1] was 2.84. Also, the efficacy in the series with Tetranychus urticae and in the series with Boophilus microplus was 100% throughout. Further, the “logP[b]” value in series [2] stood at 2.81.

In the case of `Cc1cc(C)c([S+]([O-])CC(F)(F)F)cc1-n1nc(OCC(F)(F)F)n(C2CC2)c1=O` (racemic) [Example 381], the “logP[a]” value in series [1] was found to be 2.88. For the same molecule, the figures for the efficacy in the series with Tetranychus urticae and in the series on Boophilus microplus were 90% and 100%, respectively. Further, the “logP[b]” value in series [2] amounted to 2.94.

On to `COc1cc(F)c(-n2nc(OCC(F)(F)F)n(C3CC3)c2=O)cc1[S+]([O-])CC(F)(F)F` (racemic) [Example 385], for which the “logP[a]” value in series [1] is on record as 2.80. This molecule also yielded an efficacy in the series with Boophilus microplus of 100%. In addition, in series [2], the “logP[b]” value is 2.74.

As to `Cc1cc(Cl)c([S+]([O-])CC(F)(F)F)cc1-n1nc(OCC(F)(F)F)n(C2CC2)c1=O` (racemic) [Example 384], in series [1], the “logP[a]” value worked out at 3.06. Moreover, the efficacy in the series on Tetranychus urticae and with Boophilus microplus was 100% throughout. Further, the “logP[b]” value in series [2] is 2.97.

For `Cc1cc(F)c(-n2nc(OC(C)C)n(C3CC3)c2=O)cc1SCC(F)(F)F` [Example 101], the “logP[a]” value in series [1] came out at 3.93. Besides, the efficacy with Tetranychus urticae and in the series with Boophilus microplus was 100% each time. Besides, in series [2], the “logP[b]” value stood at 3.85.

Consider `CCn1c([S+](C)[O-])nn(-c2cc([S+]([O-])CC(F)(F)F)c(C)cc2F)c1=O` (stereo not drawn) [Example 241], for which the “logP[a]” value in series [1] came to 1.65. Further, the efficacy in the series on Tetranychus urticae and in the series with Boophilus microplus was 100% each time. In addition, in series [2], the “logP[b]” value turned out to be 1.61.

For `COc1nn(-c2cc([S+]([O-])CC(F)(F)F)c(C)cc2C)c(=O)n1C1CC1` (stereo not drawn) [Example 119], the “logP[a]” value in series [1] turned out to be 2.21. In addition, the efficacy turned out to be 90% with Tetranychus urticae and 100% with Boophilus microplus. Also, the “logP[b]” value in series [2] was 2.17.

Consider `CCn1c(Cl)nn(-c2cc(SCC(F)(F)F)c(C)cc2F)c1=O` [Example 434], for which the “logP[a]” value in series [1] was 3.45. For the same molecule, the efficacy in the series with Tetranychus urticae amounted to 100%. For the same molecule, the “logP[b]” value in series [2] was 3.40.

For the molecule `Cc1cc(F)c(-n2nc(C(F)(F)F)n(C)c2=O)cc1[S+]([O-])CC(F)(F)F` (stereo not drawn) [Example 12, 2-{2-Fluoro-4-methyl-5-[(2,2,2-trifluoroethyl)sulphinyl]phenyl}-4-methyl-5-(trifluoromethyl)-2,4-dihydro-3H-1,2,4-triazol-3-one], the chromatographic logP in series [1] (setting [3]) was determined as 2.52; in series [1] (setting [4]) it was 2.52; in series [2], 2.46. Further, the pest or weed control at 500 g/ha in the series on Tetranychus urticae was determined as 100%.

Consider `C=CCSc1nn(-c2cc(SCC(F)(F)F)c(C)cc2F)c(=O)n1CC=C` [Example 429], for which, in series [1], the “logP[a]” value is listed as 4.13. Further, in the series with Tetranychus urticae, the efficacy is 90%. In addition, in series [2], the “logP[b]” value was determined as 4.07.

Turning to `COn1c(C(C)C)nn(-c2cc([S+]([O-])CC(F)(F)F)c(C)cc2F)c1=O` (stereo not drawn) [Example 419], the “logP[a]” value in series [1] was 2.46. In addition, in the series with Tetranychus urticae, the efficacy amounted to 100%. Besides, in series [2], the “logP[b]” value is 2.42.

Take `Cc1cc(F)c(-n2nc(SC(C)C)n(C3CC3)c2=O)cc1[S+]([O-])CC(F)(F)F` (stereo not drawn) [Example 267]: the “logP[a]” value in series [1] is 3.19. The efficacy with Tetranychus urticae was 100%. For the same molecule, in series [2], the “logP[b]” value is reported as 3.12.

Turning to `Cc1cc(F)c(-n2nc(SCC(F)F)n(C3CC3)c2=O)cc1SCC(F)(F)F` [Example 258], the “logP[a]” value in series [1] was determined as 3.71. For the same molecule, in the series on Tetranychus urticae, the efficacy worked out at 90%. Moreover, in series [2], the “logP[b]” value amounted to 3.75.

In the case of `COC1=CC(=O)N(c2ccc(Cl)c([S+]([O-])CC(F)(F)F)c2)C1` (racemic) [Example 315], the “logP[a]” value in series [1] is reported as 2.24. This molecule came in with an efficacy with Tetranychus urticae of 90%. Besides, the “logP[b]” value in series [2] was 2.23.

As to `CCn1c(SC)nn(-c2cc(SCC(F)(F)F)c(C)cc2F)c1=O` [Example 269], the “logP[a]” value in series [1] is on record as 3.53. The efficacy in the series on Tetranychus urticae turned out to be 100%. In series [2], the “logP[b]” value is given as 3.44.

For `Cc1cc(F)c(-n2nc(C(C)(C)C)n(C3CC3)c2=O)cc1SCC(F)(F)F` [Example 63], in series [1], the “logP[a]” value is reported as 4.17. Also, the efficacy with Tetranychus urticae was found to be 100%. The “logP[b]” value in series [2] was determined as 4.11.

Turning to `C=CCn1c(SCCC)nn(-c2cc(SCC(F)(F)F)c(C)cc2F)c1=O` [Example 427], in series [1], the “logP[a]” value was found to be 4.45. This molecule had an efficacy with Tetranychus urticae of 90%. Moreover, the “logP[b]” value in series [2] stood at 4.37.

As for `CCn1c(C(F)(F)F)nn(-c2ccc(C)c(SCC(F)(F)F)c2)c1=O` [Example 54], the “logP[a]” value in series [1] was 4.38. Also, the efficacy with Tetranychus urticae is reported as 90%. The “logP[b]” value in series [2] is 4.32.

As for `Cc1ccc(-n2nc(OCc3ccccc3)n(C)c2=O)cc1[S+]([O-])CC(F)(F)F` (stereo not drawn) [Example 178], the “logP[a]” value in series [1] was determined as 3.23. Besides, in the series with Tetranychus urticae, the efficacy amounted to 90%. In addition, the “logP[b]” value in series [2] came to 3.18.

For `Cc1cc(F)c(-n2nc(N(C)C)n(C3CC3)c2=O)cc1SCC(F)(F)F` [Example 416], the “logP[a]” value in series [1] is given as 3.86. This molecule also returned an efficacy in the series with Tetranychus urticae of 90%. Further, the “logP[b]” value in series [2] came to 3.80.
